For test [1], the system named is HBV. As to the kind of experiment: HBV-AAV mouse model. The format is in vivo, C57BL/6 mice. The protocol:
Administration of Compound 28 (0.1 mg/kg, twice weekly “BIW”) led to downregulation of HBV DNA expression and a decrease in serum levels of HBsAg, and HBeAg in the HBV-AAV mouse model. At day 1, male C57BL/6 mice were intravenously injected with AAV8-1.3HBV (1×10^11 v/g). After days 28 and 31, each mouse was then intraperitoneally injected with 0.1 mg/kg compound 28 or PBS control. At day 35, mouse serum was collected for HBV DNA qPCR analysis, HBsAg and HBeAg serum analysis by ELISA.

Test [2] relates to eosinophils, dendritic cells, neutrophils. Kind of test: Porcine pancreas elastase (PPE) model, immune cells in bronchoalveolar lavage (flow cytometry). The format is in vivo, C57BL/6 mice. The note with it: 4 nmol/dose and 20 nmol/dose intraperitoneal on days -1, 0, 1; BAL on day 2. The protocol: Eight-week-old male C57BL/6 mice were grouped (N=8/group) and were intraperitoneally (I.P.) injected with compound 28 at 0, 4, or 20 nmol/dose on days −1, 0, and 1. In addition, mice were intratracheally (I.Tr.) administrated with 0 or 30 μg/dose of porcine pancreas elastase (PPE) dissolved in 50 μL saline on day 0. Mice were sacrificed on day 2 and the immune cells were collected by bronchoalveolar lavage (BAL). Cells were then subjected to fluorophore-conjugated antibody staining and analyzed by flow cytometry. Data were processed with a FlowJo […] (Treestar) Immune cells were gated as singlets >live cells>CD11c^highSiglecF^lowMHCII^high (dendritic cells), CD11c^lowCD11b^highLy-6G^high (neutrophils), and CD11c^lowCD11b^highLy-6G^lowSiglecF^high (eosinophils).

In test [3] the test system is HBsAg, adw. As to the kind of experiment: Immunization with HBsAg, adw, specific total IgG serum titers (ELISA). The format is in vivo, C57BL/6J mice. The note with it: intradermal, adw combined with 1 nmol/dose compound 28, days 0 and 14, sera at day 35. The protocol:
Eight-week-old C57BL/6J mice (females) were intradermally (I.D.) immunized at day 0 with HBsAg, adw (1 mg/dose), or HBsAg, adw at 1 mg/dose combined with compound 28 (1 nmol/dose). Mice were boosted with a second immunization at day 14 and the sera collected at day 35. HBsAg, adw-specific total IgG serum titers (OD450) were determined by ELISA. Anti-HBsAg, adw IgG titers were more than 2× higher when HBsAg, adw was combined with 1 nmol/dose of compound 28 than when HBsAg, adw was injected alone (FIG. 35).

The target in test [4] is T1, ALPK1 (Mus musculus, UniProt Q9CXB8).
T1 construct: C57/B6 mice (n=3 mice/group) were injected subcutaneously; from tissue; host or cells: whole animal, C57/B6 mice
T1 sequence (Q9CXB8 1-1231): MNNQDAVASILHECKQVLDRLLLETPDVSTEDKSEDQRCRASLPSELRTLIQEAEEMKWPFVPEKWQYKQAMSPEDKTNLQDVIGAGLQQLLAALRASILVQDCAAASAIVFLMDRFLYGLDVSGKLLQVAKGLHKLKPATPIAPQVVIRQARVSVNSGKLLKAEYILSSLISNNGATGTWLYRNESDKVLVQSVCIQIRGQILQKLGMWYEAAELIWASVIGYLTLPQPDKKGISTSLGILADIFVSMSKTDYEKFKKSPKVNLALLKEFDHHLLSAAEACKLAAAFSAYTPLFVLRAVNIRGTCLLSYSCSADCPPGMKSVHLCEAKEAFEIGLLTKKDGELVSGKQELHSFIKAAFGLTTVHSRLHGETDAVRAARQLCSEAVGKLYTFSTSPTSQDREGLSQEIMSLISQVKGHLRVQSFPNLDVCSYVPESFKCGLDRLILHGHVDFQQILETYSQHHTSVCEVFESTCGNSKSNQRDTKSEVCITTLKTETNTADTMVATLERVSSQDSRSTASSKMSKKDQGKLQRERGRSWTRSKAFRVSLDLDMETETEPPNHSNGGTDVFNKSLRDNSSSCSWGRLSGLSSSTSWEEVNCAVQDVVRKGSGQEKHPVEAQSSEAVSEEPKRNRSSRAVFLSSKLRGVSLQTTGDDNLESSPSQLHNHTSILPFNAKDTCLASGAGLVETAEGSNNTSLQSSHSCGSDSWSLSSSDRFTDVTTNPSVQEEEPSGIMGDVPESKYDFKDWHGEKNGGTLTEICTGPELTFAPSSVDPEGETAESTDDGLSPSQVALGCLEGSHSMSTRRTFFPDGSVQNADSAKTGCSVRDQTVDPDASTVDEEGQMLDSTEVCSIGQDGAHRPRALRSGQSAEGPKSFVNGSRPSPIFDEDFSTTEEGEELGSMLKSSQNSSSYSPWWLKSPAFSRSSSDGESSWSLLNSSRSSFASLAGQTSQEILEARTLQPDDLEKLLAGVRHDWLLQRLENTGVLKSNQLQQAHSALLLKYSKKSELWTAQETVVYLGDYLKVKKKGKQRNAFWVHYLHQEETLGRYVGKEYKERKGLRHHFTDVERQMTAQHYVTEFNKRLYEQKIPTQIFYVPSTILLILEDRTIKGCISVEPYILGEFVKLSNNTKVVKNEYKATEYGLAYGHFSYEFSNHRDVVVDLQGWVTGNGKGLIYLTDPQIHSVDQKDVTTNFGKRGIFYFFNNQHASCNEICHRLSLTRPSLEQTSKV
As to the kind of experiment: Serum RANTES levels as marker of ALPK1 activation in vivo. Also noted: species or system C57/B6 mice. The note with it: 10 nmole subcutaneous, serum at 24 hours or 48 hours, compared to Compound 15. The protocol: The ability of Compounds 15 and 28 to stimulate ALPK1 activation in vivo was tested by monitoring serum levels of the chemokine RANTES (CCLS), which is elevated upon activation of ALPK1. Briefly, C57/B6 mice (n=3 mice/group) were injected subcutaneously with PBS (negative control) or 10 nmole of Compound 15 or Compound 28. Serum was collected at 24 hours or 48 hours post injection.

The mark [5] stands for this setting: 0.1 mg/kg intraperitoneal at days 28 and 31, serum at day 35, ELISA.

Results on 1 compound are retold here after patent US11840551B2, “Compositions and methods of modulating the immune response by activating alpha protein kinase 1” (Shanghai Yao Yuan Biotechnology Co., Ltd., priority 2017, dated 2023).

Consider `CC(=O)OC[C@H](F)[C@H]1O[C@@H](OP(=O)(O)OP(O)(=S)OC[C@H]2O[C@@H](n3cnc4c(N)ncnc43)[C@H](O)[C@@H]2O)[C@@H](OC(C)=O)[C@@H](OC(C)=O)[C@@H]1OC(C)=O` (stereo partly drawn) [Compound 28, (2S,3S,4S,5S,6S)-2-((S)-2-acetoxy-1-fluoroethyl)-6-(((((((2R,3S,4R,5R)-5-(6-amino-9H-purin-9-yl)-3,4-dihydroxytetrahydrofuran-2-yl)methoxy)(hydroxy)phosphorothioyl)oxy)(hydroxy)phosphoryl)oxy)tetrahydro-2H-pyran-3,4,5-triyl triacetate], for which, in test [1] (setting [5]), the “serum levels of HBeAg” value is “marked decrease” and the “serum levels of HBsAg” value is on record as “marked decrease”. In addition, the “HBV DNA expression” value in test [1] (0.1 mg/kg intraperitoneal at days 28 and 31, serum at day 35, qPCR) is recorded as “marked decrease”. Further, in test [2], the “increase in the production of dendritic cells after PPE administration” value is “significantly suppressed”, the “increase in the production of eosinophils after PPE administration” value is recorded as “significantly suppressed” and the “increased production of neutrophils after PPE administration” value was “also suppressed but only at the 20 nmol/dose level”. Further, the “Anti-HBsAg, adw IgG titers relative to HBsAg, adw injected alone” value in test [3] is given as “more than 2 ×”. Moreover, the “duration of immune activation (serum RANTES)” value in test [4] was “showed a longer duration of immune activation”.
